# From PMC5506375 (Journal of medicinal chemistry, 2017)
# Columns and labels:
# [1] = target: C. jejuni NCTC 11168 PglD acetyltransferase (Campylobacter jejuni subsp. jejuni serotype O:2, UniProt Q0P9D1); assay: continuous C. jejuni PglD inhibition assay; assay type: biochemical; settings: for Km: PglD substrates
# [2] = system: S. typhimurium; settings: mouse infection model; cited from earlier work
# [3] = system: F. tularensis; settings: both pre- and post-infection; cited from earlier work
# [4] = at therapeutic doses; cited from earlier work
# [5] = system: pathogen growth; settings: in vitro; cited from earlier work
# [6] = target: T1, C jejuni PglD (Campylobacter jejuni subsp. jejuni serotype O:2, UniProt Q0P9D1); assay: PglD inhibition assay with varying substrate concentrations; assay type: biochemical
# T1 sequence (Q0P9D1 whole entry): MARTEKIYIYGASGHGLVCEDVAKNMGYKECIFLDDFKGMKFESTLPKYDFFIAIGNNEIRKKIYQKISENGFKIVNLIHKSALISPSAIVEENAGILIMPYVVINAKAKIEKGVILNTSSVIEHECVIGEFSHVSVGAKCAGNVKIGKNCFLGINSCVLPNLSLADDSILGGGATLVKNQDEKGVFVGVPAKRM
# [7] = solubility properties; assay type: physicochemical
# [8] = long-term stability in solution; assay type: physicochemical
# [9] = target: T1, C jejuni PglD; assay: dynamic light scattering of PglD/inhibitor complex; settings: apo PglD 31% PDI
# Sequence of C. jejuni NCTC 11168 PglD acetyltransferase (Q0P9D1 whole entry): as above
smiles,measurement,setting,value
CC(=O)N[C@H]1[C@@H](OP(=O)(O)OP(=O)(O)OC[C@H]2O[C@@H](n3ccc(=O)[nH]c3=O)[C@H](O)[C@@H]2O)O[C@H](C)[C@@H](N)[C@@H]1O [UDP-4-amino-sugar],Km,[1],274 µM
"O=S(=O)(Nc1ccccc1)c1ccc(NC(=S)Nc2ccccc2)cc1 [Compound 56, N-phenyl-4-(3-phenylthioureido)benzenesulfonamide]",efficacy against S. typhimurium,[2],prophylactic efficacy
same,protection against F. tularensis,[3],provided protection
same,toxicity,[4],not toxic
same,effect on pathogen growth,[5],did not affect pathogen growth
"COc1cc(CCNc2nc(CCc3ccccc3)nc3sc(C(=O)O)c(C)c23)cc(OC)c1 [Compound 37, 4-((3,5-Dimethoxyphenethyl)amino)-5-methyl-2-phenethylthieno[2,3-d]pyrimidine-6-carboxylic acid]",decrease in potency,[6]; 2-fold increase in AcCoA,2 fold
same,decrease in potency,[6]; 5-fold increase in AcCoA,4 fold
same,effect of higher UDP-4-amino-sugar concentrations on the inhibition,[6]; significantly higher UDP-4-amino-sugar concentrations,no measurable effect
Cc1c(C(=O)O)sc2nc(/C=C/c3ccc4[nH]ccc4c3)[nH]c(=O)c12 [Compound 4],solubility properties,[7],poor solubility properties
same,long-term stability in solution,[8],poor long-term stability in solution
"CO[C@H](CNc1nc(CCc2ccc(NC(C)=O)cc2)nc2sc(C(=O)O)c(C)c12)c1ccccc1 [Compound 55, (S)-2-(4-Acetamidophenethyl)-4-((2-methoxy-2-phenylethyl)amino)-5-methylthieno[2,3-d]pyrimidine-6-carboxylic acid]",polydispersity index (PDI) of PglD/inhibitor complex,[9],24 % PDI
"CNc1nc(CCc2ccccn2)nc2sc(C(=O)O)c(C)c12 [Compound 43, 5-Methyl-4-(methylamino)-2-(2-(pyridin-2-yl)ethyl)thieno[2,3-d]pyrimidine-6-carboxylic acid]",enhancement of potency versus 17,[1]; 43 vs 17,4.8 fold
"CC(=O)SCCNC(=O)CCNC(=O)[C@H](O)C(C)(C)COP(=O)(O)OP(=O)(O)OC[C@H]1O[C@@H](n2cnc3c(N)ncnc32)[C@H](O)[C@@H]1OP(=O)(O)O [AcCoA, acetyl coenzyme A]",Km,[1],295 µM
